The values that follow come from patent US12357696B2, “Preserved etherified cyclodextrin derivatives containing liquid aqueous pharmaceutical composition” (Boehringer Ingelheim Vetmedica GmbH, priority 2013, dated 2025).

Data set [1] has as its system Zygosaccharomyces rouxii, Candida albicans and Aspergillus brasiliensis. Nature of the data set: Efficacy of microbial preservation, Example 4, overall. To be noted: ascorbic acid 0.20-0.70 g/100 mL with sorbic acid 0.3 g/100 mL, pH 3.5. The data set is classed as cell-based.
The format of data set [2] is physicochemical. The method, then:
As already described in EP 0 439 030 and WO 2005/08467, pimobendan drug substance is insoluble in water: 1 g drug substance is soluble in more than 10,000 mL. At pH 7 the solubility of pimobendan is only about 0.1 mg per 100 mL.
The solubility of pimobendan in aqueous solutions is depends on the pH. […] However, the local tolerance and palatability as well as the chemical stability of such a formulation are not acceptable. This is due to the fact that the target dose would require a drug concentration in solution which can only be achieved by a pH of about pH 2.5 and lower. […] Accordingly, a pimobendan formulation comprising up to 1.5 mg/mL of pimobendan would need an increase in solubility at pH 7 by a factor of about 1000 to 1500, not achieved in prior art formulations for oral administration up to now.

Data set [3] in a line: Solubility of pimobendan in cyclodextrin solutions (FIG. 1-3). It is filed as physicochemical. The method, then: The last row of columns represents the reference control, which is the respective solution without preservative (“none”). […] FIG. 2 is a schematic diagram wherein the solubility of pimobendan is shown as a function of type and concentration of polymer, salt or complexation agent. In order to determine the degree of complexation, the effect of three different polymers, three different salts and one chelating agent on the solubility of pimobendan was tested. The pH of the solution was 4.5. Metolose is hydroxypropyl methylcellulose=HPMC=Hypromellose. Klucel ELF is hydroxypropyl cellulose=HPC. The number after the chemical name indicates the concentration of additive in % (m/V). FIG. 3 is a schematic diagram wherein the solubility of pimobendan is shown as a function of concentration of hydroxypropyl-ß-cyclodextrin and presence of sodium sorbate and hydroxypropyl methylcellulose (HPMC). Therefore, in FIG. 3 the effect of sodium sorbate and HPMC on the solubility of pimobendan was illustrated, and also the effect of concentration of hydroxypropyl-ß-cyclodextrin on the pimobendan solubility. Concentrations of sodium sorbate of 1.0% (m/V) and of HPMC of 0.1% (m/V) were used. The pH value was set to 4.5 using hydrochloric acid in all solutions.

The conditions of data set [4]: cited from earlier work.
In data set [5] the test system is E. coli, P. aeruginosa, S. aureus, C. albicans, A. brasiliensis. Nature of the data set: Antimicrobial efficacy, Example 3, overall evaluation of Tables 6 and 7. The data set is classed as cell-based. To be noted: solutions of Table 4. An excerpt:
The testing criteria applied are those for evaluation of antimicrobial activity for oral preparations according to Pharm. Eur. 7 (tests at 14 days and 28 days). The acceptance criteria of the Ph. Eur. 7, Method 5.1.3 “Efficacy of Antimicrobial Preservation” USP 34, and Method <51> Antimicrobial Effectiveness Testing are listed in the following Table 2.

In the case of `O=C1O[C@H]([C@@H](O)CO)C(O)=C1O` [ascorbic acid], the “efficacy of preservation versus concentration of antioxidant” value in data set [1] is listed as “increasing efficacy of preservation with increasing concentration of antioxidant”.

In the case of `COc1ccc(-c2nc3ccc(C4=NNC(=O)CC4C)cc3[nH]2)cc1` (stereo not shown) [pimobendan, 4,5-dihydro-6-[2-(4-methoxyphenyl)-1H-benzimidazol-5-yl]-5-methyl-3(2H)-pyridazinone], the “solubility of pimobendan in aqueous solutions depending on pH” value in data set [2] is “significantly higher at pH 1 to 2.5 than at higher pH values”. Moreover, in data set [3] (25% (m/V) cyclodextrin, pH 3.5, 4.5, 5.5, 7, 9), the “solubility of pimobendan as a function of pH value (FIG. 1)” value is reported as “highest solubility of pimobendan occurs at pH=3.5”. The “solubility of pimobendan as a function of preservative (FIG. 1)” value in data set [3] (25% (m/V) cyclodextrin, versus reference control without preservative) is reported as “highest pimobendan solubility is achieved with sodium sorbate”. Moreover, the “solubility of pimobendan as a function of cyclodextrin type (FIG. 1)” value in data set [3] (25% (m/V) hydroxypropyl-ß- or hydroxypropyl-gamma-cyclodextrin) is on record as “more soluble with hydroxypropyl-ß-cyclodextrin than hydroxypropyl-gamma-cyclodextrin”. The “solubility of pimobendan in presence of HPMC (FIG. 3)” value in data set [3] (HPMC 0.1% (m/V), hydroxypropyl-ß-cyclodextrin, pH 4.5) is “significantly increases”. Besides, in data set [3] (pH 4.5), the “solubility of pimobendan on addition of HPMC (FIG. 2)” value was “significant increase” and the “solubility of pimobendan on addition of salts or disodium edetate (FIG. 2)” value is on record as “does not significantly increase”. Also, the “solubility of pimobendan with both HPMC and sodium sorbate (FIG. 3)” value in data set [3] (sodium sorbate 1.0% (m/V) and HPMC 0.1% (m/V), pH 4.5) is reported as “significantly increased”. Besides, in data set [3] (sodium sorbate 1.0% (m/V), hydroxypropyl-ß-cyclodextrin, pH 4.5), the “solubility of pimobendan in presence of sodium sorbate (FIG. 3)” value was “significantly increases”. Moreover, the solubility of pimobendan result in data set [4] (pH 7) is “about 0.1 mg per 100 mL”. Moreover, in data set [4] (per 1 g drug substance, water), the “water in which 1 g drug substance is soluble” value is reported as “more than 10,000 mL”.

On to `C/C=C/C=C/C(=O)O` [sorbic acid], for which, in data set [5], the “antimicrobial efficacy (overall statement on Tables 6 and 7)” value is recorded as “good antimicrobial efficacy”.
